Columns and labels:
[1] = tested on: NIH 3T3 cells stably expressing Cdc42(F28L), Rac(F28L), RhoC(F30L); assay: Growth to high density or in low serum of cells expressing activated Rho GTPase mutants; type: cell-based, mouse; details: 10 μM
Method: FIGS. 2A-G illustrate effects of 968 on the transforming activity of constitutively active Rho GTPases and human breast cancer cells. […] Cells were scored after 14 days and plotted as the percentage of the total number of colonies greater than 50 μm in diameter. Data represent the average of 3 experiments (±s.d.). […] Data represent the average of 3 experiments (±s.d.). […] Data represent the average of 3 experiments (±s.d.). […] After 24 hours at 37° C., the migratory cells were fixed, stained with GIEMSA, and counted. Data represent the average of 3 experiments (±s.d.). […] Data represent the average of 3 experiments (±s.d.). […] Data represent the average of 3 experiments (±s.d.). […] Data represent the average of 3 experiments (±s.d.).

[2] = target: T1, GA activity of NIH 3T3 cells stably expressing Dbl or Cdc42(F28L) (Mus musculus, UniProt D3Z7P3); assay: GA activity in mitochondrial fractions of treated transformed NIH 3T3 cells; type: cell-based; details: 10 μM, 48 hours
T1 construct: endogenous in cells; host or cells: NIH 3T3 cells stably expressing Dbl or Cdc42(F28L); mitochondrial fraction
T1 sequence (D3Z7P3 55-603 isoform D3Z7P3-2): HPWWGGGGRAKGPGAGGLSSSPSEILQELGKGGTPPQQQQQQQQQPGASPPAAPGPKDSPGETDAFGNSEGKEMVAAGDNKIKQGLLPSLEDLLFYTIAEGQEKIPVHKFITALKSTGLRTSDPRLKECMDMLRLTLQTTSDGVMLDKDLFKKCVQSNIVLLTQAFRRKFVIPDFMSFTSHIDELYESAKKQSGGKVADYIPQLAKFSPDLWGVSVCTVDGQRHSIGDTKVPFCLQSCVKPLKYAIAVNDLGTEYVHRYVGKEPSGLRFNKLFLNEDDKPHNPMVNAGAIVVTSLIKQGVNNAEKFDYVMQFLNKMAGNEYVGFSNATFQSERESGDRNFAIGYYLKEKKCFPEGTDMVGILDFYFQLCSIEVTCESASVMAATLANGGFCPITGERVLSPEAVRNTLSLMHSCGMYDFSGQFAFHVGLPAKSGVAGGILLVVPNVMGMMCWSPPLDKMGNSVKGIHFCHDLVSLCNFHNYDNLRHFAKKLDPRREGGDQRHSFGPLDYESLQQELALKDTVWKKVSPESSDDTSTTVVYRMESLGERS
Method: 100%=620 moles of glutamine hydrolyzed per minute per mole of enzyme. Data represent the average of 3 experiments (±s.d.). […] Following precipitation of the beads and re-suspension, the samples were analyzed by Western blotting with anti-V5 antibody. […] Data represent the average of 3 experiments (±s.d.). […] Data represent the average of 3 experiments (±s.d.). […] Data represent the average of 3 experiments (±s.d.). FIG. 3E NIH 3T3 cells transiently expressing Dbl were assayed for focus formation in the presence of 10 μM 968 alone or together with 7 mM dimethyl α-ketoglutarate. […] 100%=680 nM glutamine hydrolyzed per minute per 10^5 cells. Data are the average of 3 experiments (±s.d.). […] 100%=750 nM glutamine hydrolyzed per minute per 10^5 cells. Data represent the average of 3 experiments (±s.d.).
FIGS. 4A-E illustrate the role of glutaminase C activity in cellular transformation. […] Data represent the average of 3 experiments (±s.d.). […] Data represent the average of 3 experiments (±s.d.). […] 100% represents the activity measured in untreated Dbl-transformed cells. The data represent the average of 2 experiments. […] 100% represents the activity measured in untreated SKBR3 cells. The data represent the average of 2 experiments. […] Data represent the average of 3 experiments (±s.d.).
FIGS. 11A-E illustrate the effects of different treatments on GA activity. […] The addition of Pi stimulated the GA activity in control 3T3 cells, Dbl-expressing cells, and Cdc42(F28L)-expressing cells by ˜6-fold, 2-fold, and 3-fold, respectively. 100% represents the Pi-stimulated activity measured for Dbl-transformed cells that were not treated with 968. Data is the average of 3 experiments (±s.d.). […] The addition of Pi stimulated the GA activity of HMECs, MDA-MB231 cells, and SKBR3 cells by ˜5-fold, 2-fold, and 1.4-fold, respectively. 100% represents the Pi-stimulated activity for SKBR3 cells that were not treated with 968. Data are the average of 3 experiments (±s.d.). […] Mitochondrial fractions were prepared from equal numbers of cells and assayed for GA activity in the presence or absence of 133 mM Pi. The data are plotted as the percentage of GA activity measured for untreated SKBR3 cells and represent the average of 2 experiments. […] 100% represents the Pi-stimulated activity measured for untreated Dbl-transformed cells. The data represent the average of 2 experiments. […] 100% represents the Pi-stimulated activity for untreated SKBR3 cells. The data represent the average of 2 experiments.
Dbl expressing NIH 3T3 cells were treated for 48 hours in the presence or absence of 968 (10 μM), Bay 11-7082 (2 μM) or Rapamycin (100 nM). Mitochondria were then isolated from the treated cells and assayed for glutaminase activity in the absence or presence of phosphate.
Mitochondrial preparations were obtained using the mitochondria isolation kit from QIAGEN (Cat #37612). A suspension containing 2×10^7 cells was transferred into a 50 ml conical tube and centrifuged at 500×g for 10 minutes at 4° C. The pellets were resuspended in 2 ml of ice-cold lysis buffer (supplied by QIAGEN) and incubated for 10 minutes at 4° C. using an end-over-end shaker. The lysates were centrifuged at 1000×g for 10 minutes at 4° C., and the pellets were resuspended in a buffer supplied by the manufacturer and disrupted completely by using a blunt-ended, 23-gauge needle and a syringe, followed by centrifugation at 6000×g for 20 minutes at 4° C. […]

## CN(C)c1ccc(C2Nc3ccc4ccccc4c3C3=C2C(=O)CC(C)(C)C3)cc1Br (stereo not shown) [Compound 968, 5-[3-bromo-4-(dimethylamino)phenyl]-2,2-dimethyl-2,3,5,6-tetrahydrobenzo[a]]
[1]; 1% calf serum
  growth under low serum conditions: blocking their ability
[1]; 10% calf serum, 6 days
  growth to high density: blocking their ability
[2]
  GA activity of transformed cells: inhibits their GA activity
[2]; with or without 133 mM Pi
  sensitivity of basal versus phosphate-stimulated GA activity: basal activity being more sensitive than the phosphate-stimulated activity
